In PubChem BioAssay (NCI):
Several values for one entry are separate records, joined by “and”; a condition that tells them apart may be missing. Identical values can stand only once.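 Five compound concentrations were applied to cells in 96-well plates for 48 hours; endpoints were derived by simple linear interpolation of the resulting dose-response curve. GI50 marks 50% less growth. Definition used: TGI = concentration required for complete inhibition of growth.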

Experiments:
Test in all cases: growth of human tumour cells (NCI), 48 h
786-0 renal = test system: 786-0 renal
A498 renal = test system: A498 renal
A549 NSCLC = test system: A549 NSCLC
ACHN renal = test system: ACHN renal
BT-549 breast = test system: BT-549 breast
CAKI-1 renal = test system: CAKI-1 renal
CCRF-CEM leukemia = test system: CCRF-CEM leukemia
COLO 205 colon = test system: COLO 205 colon
DU-145 prostate = test system: DU-145 prostate
EKVX NSCLC = test system: EKVX NSCLC
HCC-2998 colon = test system: HCC-2998 colon
HCT-116 colon = test system: HCT-116 colon
HCT-15 colon = test system: HCT-15 colon
HL-60(TB) leukemia = test system: HL-60(TB) leukemia
HOP-62 NSCLC = test system: HOP-62 NSCLC
HOP-92 NSCLC = test system: HOP-92 NSCLC
HS 578T breast = test system: HS 578T breast
HT29 colon = test system: HT29 colon
IGROV1 ovarian = test system: IGROV1 ovarian
K-562 leukemia = test system: K-562 leukemia
KM12 colon = test system: KM12 colon
LOX IMVI melanoma = test system: LOX IMVI melanoma
M14 melanoma = test system: M14 melanoma
MALME-3M melanoma = test system: MALME-3M melanoma
MCF7 breast = test system: MCF7 breast
MDA-MB-231 breast = test system: MDA-MB-231 breast
MDA-MB-435 = test system: MDA-MB-435
MDA-N = test system: MDA-N
MOLT-4 leukemia = test system: MOLT-4 leukemia
NCI-H226 lung = test system: NCI-H226 lung
NCI-H23 lung = test system: NCI-H23 lung
NCI-H460 lung = test system: NCI-H460 lung
NCI-H522 lung = test system: NCI-H522 lung
NCI/ADR-RES ovarian = test system: NCI/ADR-RES ovarian
OVCAR-3 ovarian = test system: OVCAR-3 ovarian
OVCAR-4 ovarian = test system: OVCAR-4 ovarian
OVCAR-5 ovarian = test system: OVCAR-5 ovarian
OVCAR-8 ovarian = test system: OVCAR-8 ovarian
PC-3 prostate = test system: PC-3 prostate
RPMI-8226 leukemia = test system: RPMI-8226 leukemia
RXF 393 renal = test system: RXF 393 renal
SF-268 CNS = test system: SF-268 CNS
SF-295 CNS = test system: SF-295 CNS
SF-539 CNS = test system: SF-539 CNS
SK-MEL-2 melanoma = test system: SK-MEL-2 melanoma
SK-MEL-28 melanoma = test system: SK-MEL-28 melanoma
SK-MEL-5 melanoma = test system: SK-MEL-5 melanoma
SK-OV-3 ovarian = test system: SK-OV-3 ovarian
SN12C renal = test system: SN12C renal
SNB-19 CNS = test system: SNB-19 CNS
SNB-75 CNS = test system: SNB-75 CNS
SR leukemia = test system: SR leukemia
SW-620 colon = test system: SW-620 colon
T-47D breast = test system: T-47D breast
TK-10 renal = test system: TK-10 renal
U251 CNS = test system: U251 CNS
UACC-257 melanoma = test system: UACC-257 melanoma
UACC-62 melanoma = test system: UACC-62 melanoma
UO-31 renal = test system: UO-31 renal

Cc1cc(N(CCOS(C)(=O)=O)CCOS(C)(=O)=O)ccc1C=Nc1ccc(-c2csc(-c3ccccc3)n2)c(Cl)c1
TGI (786-0 renal): 17.7 µM | TGI (A498 renal): 4.67 µM | TGI (A549 NSCLC): 15.9 µM | TGI (ACHN renal): 22.2 µM | TGI (BT-549 breast): 73.6 µM | TGI (CAKI-1 renal): 1.32 µM | TGI (CCRF-CEM leukemia): 23.3 µM | TGI (COLO 205 colon): 10.2 µM | TGI (DU-145 prostate): 35.6 µM | TGI (EKVX NSCLC): 29.1 µM | TGI (HCC-2998 colon): 15.8 µM | TGI (HCT-116 colon): 40.5 µM | TGI (HCT-15 colon): 36.1 µM | TGI (HL-60(TB) leukemia): 19.8 µM | TGI (HOP-62 NSCLC): 29.3 µM | TGI (HOP-92 NSCLC): 27.6 µM | TGI (HS 578T breast): 49.8 µM | TGI (HT29 colon): 31.5 µM | TGI (IGROV1 ovarian): 32.2 µM | TGI (K-562 leukemia): 51 µM | TGI (KM12 colon): 27.2 µM | TGI (LOX IMVI melanoma): 28.3 µM | TGI (M14 melanoma): 43.1 µM | TGI (MALME-3M melanoma): 25 µM | TGI (MCF7 breast): > 58.9 µM | TGI (MDA-MB-231 breast): 50.9 µM | TGI (MDA-MB-435): 38 µM | TGI (MDA-N): 23.1 µM | TGI (MOLT-4 leukemia): 38.7 µM | TGI (NCI-H226 lung): 45.2 µM | TGI (NCI-H23 lung): 29 µM | TGI (NCI-H460 lung): 7.01 µM | TGI (NCI-H522 lung): 3.02 µM | TGI (NCI/ADR-RES ovarian): 71.5 µM | TGI (OVCAR-3 ovarian): 40.9 µM | TGI (OVCAR-4 ovarian): 51.3 µM | TGI (OVCAR-5 ovarian): 55 µM | TGI (OVCAR-8 ovarian): > 84.2 µM | TGI (PC-3 prostate): 46.5 µM | TGI (RPMI-8226 leukemia): > 71 µM | TGI (RXF 393 renal): 7.65 µM | TGI (SF-268 CNS): 54.8 µM | TGI (SF-295 CNS): 29.8 µM | TGI (SF-539 CNS): 16.8 µM | TGI (SK-MEL-2 melanoma): 50.5 µM | TGI (SK-MEL-28 melanoma): > 62.4 µM | TGI (SK-MEL-5 melanoma): 16.2 µM | TGI (SK-OV-3 ovarian): 31.6 µM | TGI (SN12C renal): 44 µM | TGI (SNB-19 CNS): > 61.1 µM | TGI (SNB-75 CNS): 14.1 µM | TGI (SR leukemia): 17.9 µM | TGI (SW-620 colon): > 64.7 µM | TGI (T-47D breast): > 85.2 µM | TGI (TK-10 renal): 46.1 µM | TGI (U251 CNS): > 64.8 µM | TGI (UACC-257 melanoma): 49.3 µM | TGI (UACC-62 melanoma): 20.6 µM | TGI (UO-31 renal): 29.7 µM

CN(C)CC/C=C1\c2ccccc2Sc2ccc(Cl)cc21
GI50 (786-0 renal): 2.5 µM | TGI (786-0 renal): 6.88 µM and 25.6 µM | GI50 (A498 renal): 3.02 µM | TGI (A498 renal): 14.1 µM and 28 µM | GI50 (A549 NSCLC): 2.87 µM | TGI (A549 NSCLC): 11.4 µM and 28.9 µM | GI50 (ACHN renal): 3.61 µM | TGI (ACHN renal): 14.4 µM and 29.6 µM | GI50 (BT-549 breast): 4.91 µM | TGI (BT-549 breast): 17.4 µM and 29.2 µM | GI50 (CAKI-1 renal): 2.56 µM | TGI (CAKI-1 renal): 11.4 µM and 21.4 µM | GI50 (CCRF-CEM leukemia): 3.36 µM | TGI (CCRF-CEM leukemia): 15.4 µM and 25.2 µM | GI50 (COLO 205 colon): 1.54 µM | GI50 (DU-145 prostate): 6.38 µM | TGI (DU-145 prostate): 18.6 µM and 29.7 µM | GI50 (EKVX NSCLC): 6.47 µM | TGI (EKVX NSCLC): 22.3 µM and 22.8 µM | GI50 (HCC-2998 colon): 1.68 µM | TGI (HCC-2998 colon): 3.43 µM and 4.76 µM | GI50 (HCT-116 colon): 2.4 µM | TGI (HCT-116 colon): 6.13 µM and 24.4 µM | GI50 (HCT-15 colon): 3.79 µM | TGI (HCT-15 colon): 14 µM and 30.6 µM | GI50 (HL-60(TB) leukemia): 4.46 µM | TGI (HL-60(TB) leukemia): 13.7 µM and 27.7 µM | GI50 (HOP-62 NSCLC): 1.94 µM | TGI (HOP-62 NSCLC): 5.44 µM and 28 µM | GI50 (HOP-92 NSCLC): 0.379 µM | TGI (HOP-92 NSCLC): 3.39 µM and 18.7 µM | GI50 (HS 578T breast): 2.99 µM | TGI (HS 578T breast): 15.1 µM and 37 µM | GI50 (HT29 colon): 1.98 µM | TGI (HT29 colon): 3.96 µM and 16.4 µM | GI50 (IGROV1 ovarian): 3.24 µM | TGI (IGROV1 ovarian): 11.3 µM and 26.3 µM | GI50 (K-562 leukemia): 2.43 µM | TGI (K-562 leukemia): 4.71 µM and 18.7 µM | GI50 (KM12 colon): 2.54 µM | TGI (KM12 colon): 6.08 µM and 37.9 µM | GI50 (LOX IMVI melanoma): 1.57 µM | GI50 (M14 melanoma): 1.87 µM | TGI (M14 melanoma): 3.58 µM and 11.4 µM | GI50 (MALME-3M melanoma): 1.71 µM | TGI (MALME-3M melanoma): 3.47 µM and 28 µM | GI50 (MCF7 breast): 1.81 µM | TGI (MCF7 breast): 3.37 µM and 30.3 µM | GI50 (MDA-MB-231 breast): 2.12 µM | TGI (MDA-MB-231 breast): 9.32 µM and 28.3 µM | GI50 (MDA-MB-435): 1.77 µM | TGI (MDA-MB-435): 4.03 µM and 23.1 µM | TGI (MDA-N): 26.1 µM | GI50 (MOLT-4 leukemia): 3.44 µM | TGI (MOLT-4 leukemia): 9.98 µM and 25.9 µM | GI50 (NCI-H226 lung): 2.45 µM | TGI (NCI-H226 lung): 9.11 µM and 38 µM | GI50 (NCI-H23 lung): 3.52 µM | TGI (NCI-H23 lung): 15.7 µM and 31.3 µM | GI50 (NCI-H460 lung): 2.02 µM | TGI (NCI-H460 lung): 3.95 µM and 28.8 µM | GI50 (NCI-H522 lung): 1.67 µM | TGI (NCI-H522 lung): 3.23 µM and 29.1 µM | GI50 (NCI/ADR-RES ovarian): 2.42 µM | TGI (NCI/ADR-RES ovarian): 8.24 µM and 30.8 µM | GI50 (OVCAR-3 ovarian): 3.99 µM | TGI (OVCAR-3 ovarian): 13.5 µM and 26.8 µM | GI50 (OVCAR-4 ovarian): 3.72 µM | TGI (OVCAR-4 ovarian): 13.9 µM and 28.5 µM | GI50 (OVCAR-5 ovarian): 4.61 µM | TGI (OVCAR-5 ovarian): 17.9 µM and 27.8 µM | GI50 (OVCAR-8 ovarian): 1.99 µM | TGI (OVCAR-8 ovarian): 4.44 µM and 32.8 µM | GI50 (PC-3 prostate): 3.03 µM | TGI (PC-3 prostate): 12.5 µM and 26 µM | GI50 (RPMI-8226 leukemia): 2.69 µM | TGI (RPMI-8226 leukemia): 9.19 µM and 17.2 µM | GI50 (RXF 393 renal): 1.86 µM | TGI (RXF 393 renal): 5.59 µM and 28.3 µM | GI50 (SF-268 CNS): 3.78 µM | TGI (SF-268 CNS): 14.1 µM and 30.1 µM | GI50 (SF-295 CNS): 1.78 µM | TGI (SF-295 CNS): 4.09 µM and 29.7 µM | GI50 (SF-539 CNS): 3.61 µM | TGI (SF-539 CNS): 11.2 µM and 36.2 µM | GI50 (SK-MEL-2 melanoma): 1.95 µM | TGI (SK-MEL-2 melanoma): 3.71 µM and 31.7 µM | GI50 (SK-MEL-28 melanoma): 1.74 µM | TGI (SK-MEL-28 melanoma): 3.11 µM and 20.2 µM | GI50 (SK-MEL-5 melanoma): 1.62 µM | TGI (SK-MEL-5 melanoma): 3 µM and 28.6 µM | GI50 (SK-OV-3 ovarian): 1.99 µM | TGI (SK-OV-3 ovarian): 5 µM and 30.7 µM | GI50 (SN12C renal): 2.84 µM | TGI (SN12C renal): 13.7 µM and 29.9 µM | GI50 (SNB-19 CNS): 2.62 µM | TGI (SNB-19 CNS): 10.6 µM and 29.9 µM | GI50 (SNB-75 CNS): 2.46 µM | TGI (SNB-75 CNS): 7.61 µM and 25.2 µM | GI50 (SR leukemia): 3.29 µM | TGI (SR leukemia): 8.76 µM | GI50 (SW-620 colon): 2.18 µM | TGI (SW-620 colon): 5.4 µM and 35.4 µM | GI50 (T-47D breast): 1.46 µM | GI50 (TK-10 renal): 1.91 µM | TGI (TK-10 renal): 3.95 µM and 28.3 µM | GI50 (U251 CNS): 1.92 µM | TGI (U251 CNS): 4.66 µM and 26.9 µM | GI50 (UACC-257 melanoma): 1.49 µM | TGI (UACC-257 melanoma): 3.11 µM and 20.6 µM | GI50 (UACC-62 melanoma): 1.51 µM | TGI (UACC-62 melanoma): 3.09 µM and 26.7 µM | GI50 (UO-31 renal): 2.96 µM | TGI (UO-31 renal): 15.6 µM and 21.5 µM
